{
  "source": "paper PMC2798750",
  "about": "“Caenorhabditis elegans N-glycan Core β-galactoside Confers Sensitivity towards Nematotoxic Fungal Galectin CGL2” (PLoS Pathogens, 2010)",
  "target": "CGL2 (Coprinopsis cinerea, UniProt Q9P4R8)",
  "sequence (Q9P4R8 whole entry, looked up)": "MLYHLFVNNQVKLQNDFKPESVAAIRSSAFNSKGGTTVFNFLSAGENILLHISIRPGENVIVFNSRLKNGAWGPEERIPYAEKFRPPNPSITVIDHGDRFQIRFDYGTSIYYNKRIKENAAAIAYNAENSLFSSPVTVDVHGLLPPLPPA",
  "test": "biochemical",
  "data": [
    {"smiles": "CC(=O)N[C@H]1[C@H](OCCCCCN)O[C@H](CO[C@@H]2O[C@@H](C)[C@@H](O[C@@H]3O[C@H](CO)[C@H](O)[C@H](O)[C@H]3O)[C@@H](O)[C@@H]2O)[C@@H](O)[C@@H]1O", "note": "[Galβ1,4Fucα1,6GlcNAcβOC5H10NH2]", "values": [
      {"measurement": "Kd", "result": "~100", "unit": "µM"}
    ]}
  ]
}
